According to the supplement of paper PMC13207355:
Structures can show the parent of a compound that is named as a salt.

Columns and labels:
Settings in all cases: exposure time: 72 h
E28 [1] = patient-derived glioblastoma stem cells of classical subtype; assay: surviving fraction (nuclei count normalised to DMSO); higher = more cells surviving (less toxic)
E13 [2] = patient-derived glioblastoma stem cells of classical subtype; assay: as above
E31 [3] = patient-derived glioblastoma stem cells of proneural subtype; assay: as above
E21 [4] = patient-derived glioblastoma stem cells of mesenchymal subtype; assay: as above
FT3469 [5] = normal neural stem cell line; assay: as above
E34 [6] = patient-derived glioblastoma stem cells of proneural subtype; assay: as above
E57 [7] = patient-derived glioblastoma stem cells of mesenchymal subtype; assay: as above
E28 [8] = assay: phenotypic distance (Euclidean, principal components) from DMSO controls (arbitrary units); higher = stronger morphological change
E13 [9] = assay: as above
E31 [10] = assay: as above
E21 [11] = assay: as above
FT3469 [12] = assay: as above
E34 [13] = assay: as above
E57 [14] = assay: as above
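Wherever phenotypic distance (Euclidean, principal components) from DMSO controls is given: cell Painting imaging in 384-well plates, CellProfiler features reduced to at least 20 principal components, Euclidean distance versus same-plate DMSO vehicle wells (0.1% v/v), median over six images per well.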
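Wherever surviving fraction (nuclei count normalised to DMSO) is given: nuclei counted by high-content imaging of Hoechst-stained cells in laminin-coated 384-well plates, relative to 0.1% DMSO vehicle wells, with staurosporine as cell-death control.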

CC[C@]1(O)C[C@@H]2CN(CCc3c([nH]c4ccccc34)[C@@](C(=O)OC)(c3cc4c(cc3OC)N(C)[C@H]3[C@@](O)(C(=O)OC)[C@H](OC(C)=O)[C@]5(CC)C=CCN6CC[C@]43[C@@H]65)C2)C1 [Vinblastine sulfate]
Settings | phenotypic distance | surviving fraction
E13 [2], 4.1 nM | – | 0.22
E13 [2], 12.3 nM | – | 0.177
E13 [2], 37 nM | – | 0.175
E13 [2], 111.1 nM | – | 0.159
E13 [2], 333.3 nM | – | 0.171
E13 [2], 1000 nM | – | 0.162
E13 [2], 3000 nM | – | 0.194
E13 [9], 4.1 nM | 7.96 | –
E13 [9], 12.3 nM | 7.11 | –
E13 [9], 37 nM | 8.76 | –
E13 [9], 111.1 nM | 7.57 | –
E13 [9], 333.3 nM | 9.22 | –
E13 [9], 1000 nM | 8.93 | –
E13 [9], 3000 nM | 9.73 | –
E21 [4], 4.1 nM | – | 0.0927
E21 [4], 12.3 nM | – | 0.0948
E21 [4], 37 nM | – | 0.0937
E21 [4], 111.1 nM | – | 0.08
E21 [4], 333.3 nM | – | 0.0642
E21 [4], 1000 nM | – | 0.0421
E21 [4], 3000 nM | – | 0.0326
E21 [11], 4.1 nM | 9.17 | –
E21 [11], 12.3 nM | 9.98 | –
E21 [11], 37 nM | 11.1 | –
E21 [11], 111.1 nM | 9.54 | –
E21 [11], 333.3 nM | 8.35 | –
E21 [11], 1000 nM | 8.21 | –
E21 [11], 3000 nM | 11 | –
E28 [1], 4.1 nM | – | 0.39
E28 [1], 12.3 nM | – | 0.297
E28 [1], 37 nM | – | 0.291
E28 [1], 111.1 nM | – | 0.236
E28 [1], 333.3 nM | – | 0.269
E28 [1], 1000 nM | – | 0.218
E28 [1], 3000 nM | – | 0.204
E28 [8], 4.1 nM | 3.12 | –
E28 [8], 12.3 nM | 3.85 | –
E28 [8], 37 nM | 4.99 | –
E28 [8], 111.1 nM | 4.47 | –
E28 [8], 333.3 nM | 5.63 | –
E28 [8], 1000 nM | 6.15 | –
E28 [8], 3000 nM | 6.57 | –
E31 [3], 4.1 nM | – | 0.0459
E31 [3], 12.3 nM | – | 0.0237
E31 [3], 37 nM | – | 0.0459
E31 [3], 111.1 nM | – | 0.0325
E31 [3], 333.3 nM | – | 0.0444
E31 [3], 1000 nM | – | 0.0237
E31 [3], 3000 nM | – | 0.0163
E31 [10], 4.1 nM | 6.42 | –
E31 [10], 12.3 nM | 12.9 | –
E31 [10], 37 nM | 11.4 | –
E31 [10], 111.1 nM | 10.7 | –
E31 [10], 333.3 nM | 14.5 | –
E31 [10], 1000 nM | 10.1 | –
E31 [10], 3000 nM | 9.92 | –
E34 [6], 4.1 nM | – | 0.338
E34 [6], 12.3 nM | – | 0.282
E34 [6], 37 nM | – | 0.405
E34 [6], 111.1 nM | – | 0.322
E34 [6], 333.3 nM | – | 0.375
E34 [6], 1000 nM | – | 0.226
E34 [6], 3000 nM | – | 0.281
E34 [13], 4.1 nM | 7.02 | –
E34 [13], 12.3 nM | 7.36 | –
E34 [13], 37 nM | 6.67 | –
E34 [13], 111.1 nM | 7.53 | –
E34 [13], 333.3 nM | 8.9 | –
E34 [13], 1000 nM | 8.95 | –
E34 [13], 3000 nM | 8.01 | –
E57 [7], 4.1 nM | – | 0.0751
E57 [7], 12.3 nM | – | 0.0815
E57 [7], 37 nM | – | 0.0676
E57 [7], 111.1 nM | – | 0.0629
E57 [7], 333.3 nM | – | 0.057
E57 [7], 1000 nM | – | 0.0602
E57 [7], 3000 nM | – | 0.057
E57 [14], 4.1 nM | 5.33 | –
E57 [14], 12.3 nM | 5.47 | –
E57 [14], 37 nM | 6.45 | –
E57 [14], 111.1 nM | 5.46 | –
E57 [14], 333.3 nM | 5.55 | –
E57 [14], 1000 nM | 5.53 | –
E57 [14], 3000 nM | 6.15 | –
FT3469 [5], 4.1 nM | – | 0.427
FT3469 [5], 12.3 nM | – | 0.416
FT3469 [5], 37 nM | – | 0.414
FT3469 [5], 111.1 nM | – | 0.334
FT3469 [5], 333.3 nM | – | 0.372
FT3469 [5], 1000 nM | – | 0.388
FT3469 [5], 3000 nM | – | 0.353
FT3469 [12], 4.1 nM | 3.93 | –
FT3469 [12], 12.3 nM | 4.58 | –
FT3469 [12], 37 nM | 4.48 | –
FT3469 [12], 111.1 nM | 5.12 | –
FT3469 [12], 333.3 nM | 6.19 | –
FT3469 [12], 1000 nM | 5.04 | –
FT3469 [12], 3000 nM | 5.6 | –

CC(C)C[C@H]1C(=O)N2CCC[C@H]2[C@]2(O)O[C@](NC(=O)[C@@H]3C=C4c5cccc6[nH]c(Br)c(c56)C[C@H]4N(C)C3)(C(C)C)C(=O)N12 [Bromocryptine mesylate]
Settings | phenotypic distance | surviving fraction
E13 [2], 4.1 nM | – | 0.907
E13 [2], 12.3 nM | – | 0.944
E13 [2], 37 nM | – | 0.958
E13 [2], 111.1 nM | – | 0.816
E13 [2], 333.3 nM | – | 0.981
E13 [2], 1000 nM | – | 0.976
E13 [2], 3000 nM | – | 0.8
E13 [9], 4.1 nM | 0.797 | –
E13 [9], 12.3 nM | 0.698 | –
E13 [9], 37 nM | 0.44 | –
E13 [9], 111.1 nM | 1.07 | –
E13 [9], 333.3 nM | 0.683 | –
E13 [9], 1000 nM | 1.03 | –
E13 [9], 3000 nM | 1.57 | –
E21 [4], 4.1 nM | – | 1.06
E21 [4], 12.3 nM | – | 1.02
E21 [4], 37 nM | – | 1.05
E21 [4], 111.1 nM | – | 0.989
E21 [4], 333.3 nM | – | 1
E21 [4], 1000 nM | – | 0.969
E21 [4], 3000 nM | – | 0.967
E21 [11], 4.1 nM | 0.67 | –
E21 [11], 12.3 nM | 0.901 | –
E21 [11], 37 nM | 0.972 | –
E21 [11], 111.1 nM | 0.667 | –
E21 [11], 333.3 nM | 0.353 | –
E21 [11], 1000 nM | 0.811 | –
E21 [11], 3000 nM | 0.593 | –
E28 [1], 4.1 nM | – | 1.1
E28 [1], 12.3 nM | – | 1.07
E28 [1], 37 nM | – | 1.07
E28 [1], 111.1 nM | – | 1.12
E28 [1], 333.3 nM | – | 0.978
E28 [1], 1000 nM | – | 1.05
E28 [1], 3000 nM | – | 0.779
E28 [8], 4.1 nM | 1.04 | –
E28 [8], 12.3 nM | 0.531 | –
E28 [8], 37 nM | 0.575 | –
E28 [8], 111.1 nM | 0.661 | –
E28 [8], 333.3 nM | 0.642 | –
E28 [8], 1000 nM | 0.784 | –
E28 [8], 3000 nM | 1.28 | –
E31 [3], 4.1 nM | – | 1.07
E31 [3], 12.3 nM | – | 1.06
E31 [3], 37 nM | – | 0.944
E31 [3], 111.1 nM | – | 1.15
E31 [3], 333.3 nM | – | 1.03
E31 [3], 1000 nM | – | 1.13
E31 [3], 3000 nM | – | 0.897
E31 [10], 4.1 nM | 0.381 | –
E31 [10], 12.3 nM | 0.548 | –
E31 [10], 37 nM | 0.581 | –
E31 [10], 111.1 nM | 0.404 | –
E31 [10], 333.3 nM | 0.658 | –
E31 [10], 1000 nM | 0.705 | –
E31 [10], 3000 nM | 0.828 | –
E34 [6], 4.1 nM | – | 0.907
E34 [6], 12.3 nM | – | 0.846
E34 [6], 37 nM | – | 0.967
E34 [6], 111.1 nM | – | 1.16
E34 [6], 333.3 nM | – | 0.879
E34 [6], 1000 nM | – | 1.05
E34 [6], 3000 nM | – | 0.727
E34 [13], 4.1 nM | 0.67 | –
E34 [13], 12.3 nM | 0.914 | –
E34 [13], 37 nM | 0.493 | –
E34 [13], 111.1 nM | 0.843 | –
E34 [13], 333.3 nM | 1.2 | –
E34 [13], 1000 nM | 0.94 | –
E34 [13], 3000 nM | 1.28 | –
E57 [7], 4.1 nM | – | 0.932
E57 [7], 12.3 nM | – | 1.13
E57 [7], 37 nM | – | 0.893
E57 [7], 111.1 nM | – | 1.05
E57 [7], 333.3 nM | – | 1.01
E57 [7], 1000 nM | – | 0.91
E57 [7], 3000 nM | – | 0.777
E57 [14], 4.1 nM | 0.496 | –
E57 [14], 12.3 nM | 0.874 | –
E57 [14], 37 nM | 0.757 | –
E57 [14], 111.1 nM | 5.36 | –
E57 [14], 333.3 nM | 0.51 | –
E57 [14], 1000 nM | 0.474 | –
E57 [14], 3000 nM | 1.74 | –
FT3469 [5], 4.1 nM | – | 0.76
FT3469 [5], 12.3 nM | – | 0.909
FT3469 [5], 37 nM | – | 1.01
FT3469 [5], 111.1 nM | – | 0.932
FT3469 [5], 333.3 nM | – | 0.984
FT3469 [5], 1000 nM | – | 1.01
FT3469 [5], 3000 nM | – | 0.912
FT3469 [12], 4.1 nM | 1.05 | –
FT3469 [12], 12.3 nM | 1.08 | –
FT3469 [12], 37 nM | 0.956 | –
FT3469 [12], 111.1 nM | 0.691 | –
FT3469 [12], 333.3 nM | 0.43 | –
FT3469 [12], 1000 nM | 0.442 | –
FT3469 [12], 3000 nM | 0.73 | –
